Molecular target: T1, IGFBP3 (Homo sapiens, UniProt P17936)
T1 construct: protein immobilised on CM5 chip
Experiment: SPR (Biacore T200, CM5 chip, immobilised IGFBP3)
Type: binding

T1 sequence (P17936 28-291): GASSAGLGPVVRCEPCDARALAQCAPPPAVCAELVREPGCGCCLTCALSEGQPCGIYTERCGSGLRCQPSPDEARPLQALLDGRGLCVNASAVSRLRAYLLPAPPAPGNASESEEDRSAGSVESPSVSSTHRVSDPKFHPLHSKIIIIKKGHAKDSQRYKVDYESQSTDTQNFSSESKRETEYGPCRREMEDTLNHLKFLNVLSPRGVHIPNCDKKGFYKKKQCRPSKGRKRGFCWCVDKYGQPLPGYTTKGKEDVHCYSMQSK

Kd: 131 µM
Structure (SMILES): COc1ccc(-c2oc3c(CC=C(C)C)c(O[C@@H]4O[C@H](CO)[C@@H](O)[C@H](O)[C@H]4O)cc(O)c3c(=O)c2O[C@@H]2O[C@@H](C)[C@H](O)[C@@H](O)[C@H]2O)cc1 [Icariin]

From paper PMC12226389, “Icariin interacts with IGFBP3 to alleviate diabetic cataract through PI3K/AKT signaling pathway” (iScience, 2025)
